From PubChem BioAssay AID2060325 (Molecular Pharmacology Branch, DTP, NCI, 2025)

Tested on: SK-OV-3 multi-cell spheroids, viability
Assay: Anticancer human tumor SK-OV-3 cell line growth inhibition [IpAb];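 on viability, T/C: viability read after seven days of drug exposure; percent of DMSO vehicle control luminescence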
Conditions: for IC50: curve of first compound; for viability, T/C: stronger effect = lower value
In short: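 Combinations with ipatasertib or abemaciclib were tested on tumour spheroids holding HUVEC (25%) and MSC (15%) alongside 60% malignant cells. Top concentration was at or near clinical Cmax (10 microM if undefined), descending in half-log steps.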

[1] = second compound 0.01 µM, first compound 0.0316 µM
[2] = second compound 0.01 µM, first compound 0.1 µM
[3] = second compound 0.01 µM, first compound 0.316 µM
[4] = second compound 0.01 µM, first compound 1 µM
[5] = second compound 0.0316 µM, first compound 0.0316 µM
[6] = second compound 0.0316 µM, first compound 0.1 µM
[7] = second compound 0.0316 µM, first compound 0.316 µM
[8] = second compound 0.0316 µM, first compound 1 µM
[9] = second compound 0.1 µM, first compound 0.0316 µM
[10] = second compound 0.1 µM, first compound 0.1 µM
[11] = second compound 0.1 µM, first compound 0.316 µM
[12] = second compound 0.1 µM, first compound 1 µM
[13] = second compound 0.316 µM, first compound 0.0316 µM
[14] = second compound 0.316 µM, first compound 0.1 µM
[15] = second compound 0.316 µM, first compound 0.316 µM
[16] = second compound 0.316 µM, first compound 1 µM
[17] = second compound 1 µM, first compound 0.0316 µM
[18] = second compound 1 µM, first compound 0.1 µM
[19] = second compound 1 µM, first compound 0.316 µM
[20] = second compound 1 µM, first compound 1 µM
[21] = second compound 0.01 µM, first compound 3.16 µM
[22] = second compound 0.01 µM, first compound 10 µM
[23] = second compound 0.0316 µM, first compound 3.16 µM
[24] = second compound 0.0316 µM, first compound 10 µM
[25] = second compound 0.1 µM, first compound 3.16 µM
[26] = second compound 0.1 µM, first compound 10 µM
[27] = second compound 0.316 µM, first compound 3.16 µM
[28] = second compound 0.316 µM, first compound 10 µM
[29] = second compound 1 µM, first compound 3.16 µM
[30] = second compound 1 µM, first compound 10 µM

Structure (SMILES)	IC50 (second compound 0.01 µM) [nM]	IC50 (second compound 0.0316 µM) [nM]	IC50 (second compound 0.1 µM) [nM]	IC50 (second compound 0.316 µM) [nM]	IC50 (second compound 1 µM) [nM]	viability, T/C [1] [%]	viability, T/C [2] [%]	viability, T/C [3] [%]	viability, T/C [4] [%]	viability, T/C [5] [%]	viability, T/C [6] [%]	viability, T/C [7] [%]	viability, T/C [8] [%]	viability, T/C [9] [%]	viability, T/C [10] [%]	viability, T/C [11] [%]	viability, T/C [12] [%]	viability, T/C [13] [%]	viability, T/C [14] [%]	viability, T/C [15] [%]	further results
COc1c(OCCCN2CCOCC2)ccc2c3n(c(=NC(=O)c4cnc(N)nc4)nc12)CCN3 + CCN1CCN(Cc2ccc(Nc3ncc(F)c(-c4cc(F)c5nc(C)n(C(C)C)c5c4)n3)nc2)CC1	6.39	4.18	< 3.16	< 3.16	< 3.16	12.6	7.16	5.33	3.04	9.9	6.3	5	2.92	10.4	5.9	5.13	2.59	9.73	6.47	5.55	viability, T/C (second compound 0.01 µM, first compound 0.00316 µM): 68%; viability, T/C (second compound 0.01 µM, first compound 0.01 µM): 38.6%; viability, T/C (second compound 0.0316 µM, first compound 0.00316 µM): 56.2%; viability, T/C (second compound 0.0316 µM, first compound 0.01 µM): 30.5%; viability, T/C (second compound 0.1 µM, first compound 0.00316 µM): 43%; viability, T/C (second compound 0.1 µM, first compound 0.01 µM): 23.7%; viability, T/C (second compound 0.316 µM, first compound 0.00316 µM): 42.1%; viability, T/C (second compound 0.316 µM, first compound 0.01 µM): 22.4%; viability, T/C [16]: 3.33%; viability, T/C (second compound 1 µM, first compound 0.00316 µM): 40.2%; viability, T/C (second compound 1 µM, first compound 0.01 µM): 23.2%; viability, T/C [17]: 10.2%; viability, T/C [18]: 6.83%; viability, T/C [19]: 5.51%; viability, T/C [20]: 4.14%
Cc1nc(NC(=O)N2CCCC2C(N)=O)sc1-c1ccnc(C(C)(C)C(F)(F)F)c1 (stereo not given) + CCN1CCN(Cc2ccc(Nc3ncc(F)c(-c4cc(F)c5nc(C)n(C(C)C)c5c4)n3)nc2)CC1	239	111	33.4	< 31.6	< 31.6	82.9	70	43.1	20.7	66.5	52.3	31.7	17.5	50.1	40.5	23.9	15.6	43.2	37.1	28.4	viability, T/C [21]: 9.47%; viability, T/C [22]: 5.17%; viability, T/C [23]: 8.57%; viability, T/C [24]: 4.47%; viability, T/C [25]: 9.26%; viability, T/C [26]: 4.48%; viability, T/C [16]: 15.7%; viability, T/C [27]: 7.93%; viability, T/C [28]: 5.24%; viability, T/C [17]: 39.5%; viability, T/C [18]: 34.7%; viability, T/C [19]: 23.9%; viability, T/C [20]: 15.9%; viability, T/C [29]: 9.43%; viability, T/C [30]: 4.78%
Cn1nccc1Nc1nccc(-c2ccn(C(CO)c3ccc(Cl)c(F)c3)c(=O)c2)n1 (stereo not given) + CCN1CCN(Cc2ccc(Nc3ncc(F)c(-c4cc(F)c5nc(C)n(C(C)C)c5c4)n3)nc2)CC1	7380	6800	9030	4250	< 31.6	84	98.2	105	118	71.3	80.8	84.4	102	56.2	55.9	63.2	69.6	52.1	55.9	61.1	viability, T/C [21]: 91.6%; viability, T/C [22]: 35.1%; viability, T/C [23]: 74%; viability, T/C [24]: 38%; viability, T/C [25]: 60.3%; viability, T/C [26]: 34.3%; viability, T/C [16]: 58.8%; viability, T/C [27]: 54.4%; viability, T/C [28]: 36%; viability, T/C [17]: 40.8%; viability, T/C [18]: 48.9%; viability, T/C [19]: 52.2%; viability, T/C [20]: 60%; viability, T/C [29]: 57%; viability, T/C [30]: 40.2%
